Usually pIC50 stands for −log10 of the IC50, conventionally taken in molar units. Lower therefore signals a high IC50.

pIC50: −log10 of the molar value.

The target of this experiment is 5-HT2A receptors (UniProt P14842). As to the kind of experiment: in-vitro affinity to 5-HT2A receptors, [3H]ketanserine displacement (Example A1). It counts as binding. An excerpt:
The 5-HT2A receptors are exposed both to [^3H]ketanserine (a substance known for its affinity to the receptor) and also to the test compound. The decrease in the affinity of [^3H]ketanserine to the receptor is an indication of the affinity of the test substance to the 5-HT2A receptor.
In the case of `CN1CCN(Cc2cnn(-c3ccc(-c4ccc[nH]4)cc3)c2-c2ccccc2F)CC1` [Example 653, 1-{5-(2-Fluorophenyl)-1-[4-(1H-pyrrol-2-yl)phenyl]-1H-pyrazol-4-ylmethyl}-4-methylpiperazine], the pIC50 is 7.24.

`OCC(O)CNCc1cnn(-c2ccc(-c3ccc(F)cc3)cc2)c1-c1ccco1` (stereo not shown) [Example 680, 3-{[1-(4′-Fluorobiphenyl-4-yl)-5-furan-2-yl-1H-pyrazol-4-ylmethyl]amino}propane-1,2-diol] gave a pIC50 of 6.77.

The compound “{[1-(4′-Fluorobiphenyl-4-yl)-5-furan-2-yl-1H-pyrazol-4-ylmethyl]methylamino}phenylpropan-1-ol [Example 587]” gave a pIC50 of 7.72.

As for `CCCCNCc1cnn(-c2ccc(-c3ccc(F)cc3)cc2)c1-c1ccco1` [Example 677, Butyl-[1-(4′-fluorobiphenyl-4-yl)-5-furan-2-yl-1H-pyrazol-4-ylmethyl]amine], the pIC50 was 6.89.

Turning to `CCN(C)Cc1cnn(-c2ccc(-c3ccc(F)cc3)cc2)c1-c1c(C)noc1C` [Example 597, [5-(3,5-Dimethylisoxazol-4-yl)-1-(4′-fluorobiphenyl-4-yl)-1H-pyrazol-4-ylmethyl]ethylmethylamine], the pIC50 is 7.64.

`CC(=O)N(CCN1CCCCC1)Cc1cnn(-c2ccc(-c3ccc(F)cc3)cc2)c1-c1ccco1` [Example 699, N-[1-(4′-Fluorobiphenyl-4-yl)-5-furan-2-yl-1H-pyrazol-4-ylmethyl]-N-(2-piperidin-1-ylethyl)acetamide]: the pIC50 was 6.37.

The compound `CCCCN(Cc1cnn(-c2ccc(-c3ccc(F)cc3)cc2)c1-c1ccco1)Cc1cnn(-c2ccc(-c3ccc(F)cc3)cc2)c1-c1ccco1` [Example 622, Butylbis-[1-(4′-fluorobiphenyl-4-yl)-5-furan-2-yl-1H-pyrazol-4-ylmethyl]amine] gave a pIC50 of 7.47.

On to `Cc1noc(C)c1-c1c(CN(C)C)cnn1-c1ccc(-c2ccc(F)cc2)cc1` [Example 577, [5-(3,5-Dimethylisoxazol-4-yl)-1-(4′-fluorobiphenyl-4-yl)-1H-pyrazol-4-ylmethyl]dimethylamine], for which the negative logarithm of the IC50 (pIC50) is 7.80.

With `Fc1ccc(-c2ccc(-n3ncc(CNC4CC4)c3-c3ccco3)cc2)cc1` [Example 582], the pIC50 was 7.77.

Consider `CC(C)(C)OC(=O)N1CCN(Cc2cnn(-c3ccc(-c4cccc(F)c4)cc3)c2-c2ccco2)CC1` [Example 638, tert-Butyl 4-[1-(3′-Fluorobiphenyl-4-yl)-5-furan-2-yl-1H-pyrazol-4-ylmethyl]piperazine-1-carboxylate], for which the pIC50 is 7.38.

For `Fc1ccc(-c2ccc(-n3ncc(CN4CCC(N5CCCC5)CC4)c3-c3ccoc3)cc2)cc1` [Example 692, 1-[1-(4′-Fluorobiphenyl-4-yl)-5-furan-3-yl-1H-pyrazol-4-ylmethyl]-4-pyrrolidin-1-ylpiperidine], the pIC50 was 6.59.

Compound `COc1cc2c(cc1OC)CN(Cc1cnn(-c3ccc(-c4ccc(F)cc4)cc3)c1-c1ccco1)CC2` [Example 697, 2-[1-(4′-Fluorobiphenyl-4-yl)-5-furan-2-yl-1H-pyrazol-4-ylmethyl]-6,7-dimethoxy-1,2,3,4-tetrahydroisoquinoline] gave a pIC50 of 6.46.

Consider `Fc1ccc(-c2ccc(-n3ncc(CNCCc4ccncc4)c3-c3ccco3)cc2)cc1` [Example 655, [1-(4′-Fluorobiphenyl-4-yl)-5-furan-2-yl-1H-pyrazol-4-ylmethyl]-(2-pyridin-4-ylethyl)amine], for which the pIC50 was 7.17.

For the compound `O=C(O)Cc1cnn(-c2ccccc2F)c1-c1cccs1` [Example 678, 1-(2-Fluorophenyl)-5-(2-thienyl)-4-pyrazoleacetic acid], the pIC50 was 6.80.

Regarding `Fc1ccc(CCN2CCC(NCc3cnn(-c4ccc(-c5ccc(F)cc5)cc4)c3-c3ccco3)C2)cc1` (stereo not shown) [Example 581, [1-(4′-Fluorobiphenyl-4-yl)-5-furan-2-yl-1H-pyrazol-4-ylmethyl]-{1-[2-(4-fluorophenyl)ethyl]pyrrolidin-3-yl}amine], the pIC50 was 7.77.

Regarding `Fc1ccc(-c2ccc(-n3ncc(CNC4CN5CCC4CC5)c3-c3ccco3)cc2)cc1` (stereo not shown) [Example 621], the negative-log IC50 (pIC50) was 7.47.

For `Fc1ccc(-c2ccc(-n3ncc(CN4CCN(CCN5CCCC5)CC4)c3-c3cccc(Cl)c3)cc2)cc1` [Example 703, 1-[5-(3-Chlorophenyl)-1-(4′-fluorobiphenyl-4-yl)-1H-pyrazol-4-ylmethyl]-4-(2-pyrrolidin-1-ylethyl)piperazine], the pIC50 is 6.32.

For the compound `CCN(CC)Cc1cnn(-c2ccc(-c3ccc(F)cc3)cc2)c1-c1cccc(OC)c1` [Example 676, Diethyl-[1-(4′-fluorobiphenyl-4-yl)-5-(3-methoxyphenyl)-1H-pyrazol-4-ylmethyl]amine], the pIC50 was 6.89.

As to `CN1CCN(Cc2cnn(-c3ccc(-c4ccc(S(C)(=O)=O)cc4)cc3)c2-c2ccccc2F)CC1` [Example 663, 1-[5-(2-Fluorophenyl)-1-(4′-methanesulfonylbiphenyl-4-yl)-1H-pyrazol-4-ylmethyl]-4-methylpiperazine], the negative-log IC50 (pIC50) was 7.07.

For the compound `Fc1ccc(-c2ccc(-n3ncc(CNC4CN5CCC4CC5)c3-c3ccco3)cc2)cc1` (stereo not shown) [Example 681, (1-Azabicyclo[2.2.2]oct-3-yl)-[1-(4′-fluorobiphenyl-4-yl)-5-furan-2-yl-1H-pyrazol-4-ylmethyl]amine], the pIC50 is 6.74.

On to `OC1CCCN(Cc2cnn(-c3ccc(-c4ccc(F)cc4)cc3)c2-c2ccco2)C1` (stereo not shown) [Example 646, 1-[1-(4′-Fluorobiphenyl-4-yl)-5-furan-2-yl-1H-pyrazol-4-ylmethyl]piperidin-3-ol], for which the pIC50 is 7.30.

`CCC(CO)NCc1cnn(-c2ccc(-c3ccc(F)cc3)cc2)c1-c1ccco1` (stereo not shown) [Example 642, 2-{[1-(4′-Fluorobiphenyl-4-yl)-5-furan-2-yl-1H-pyrazol-4-ylmethyl]amino}butan-1-ol] gave a negative-log IC50 (pIC50) of 7.33.

On to `OCCOCCNCc1cnn(-c2ccc(-c3ccc(F)cc3)cc2)c1-c1ccco1` [Example 666, 2-(2-{[1-(4′-Fluorobiphenyl-4-yl)-5-furan-2-yl-1H-pyrazol-4-ylmethyl]amino}ethoxy)ethanol], for which the negative-log IC50 (pIC50) was 7.04.

With `CC(C)(C)OC(=O)N1CCN(Cc2cnn(-c3ccc(-c4ccc5c(c4)OCCO5)cc3)c2-c2ccco2)CC1` [Example 572, tert-Butyl 4-{1-[4-(2,3-dihydrobenzo-1,4-dioxin-6-yl)phenyl]-5-furan-2-yl-1H-pyrazol-4-ylmethyl}piperazine-1-carboxylate], the pIC50 is 7.92.

`CCC(CC)CNCc1cnn(-c2ccc(-c3ccc(OC)cc3)cc2)c1-c1ccco1` [Example 637] gave a pIC50 of 7.38.

On to `Fc1ccc(-c2ccc(-n3ncc(CNCCc4ccccn4)c3-c3ccco3)cc2)cc1` [Example 604, [1-(4′-Fluorobiphenyl-4-yl)-5-furan-2-yl-1H-pyrazol-4-ylmethyl]-(2-pyridin-2-ylethyl)amine], for which the negative logarithm of the IC50 (pIC50) was 7.59.

`Fc1ccc(-c2ccc(-n3ncc(CNC4CCCC4)c3-c3ccco3)cc2)cc1` [Example 568, Cyclopentyl-[1-(4′-fluorobiphenyl-4-yl)-5-furan-2-yl-1H-pyrazol-4-ylmethyl]amine] had a pIC50 of 7.96.

For `COc1ccc(-c2ccc(-n3ncc(CN)c3-c3ccco3)cc2)cc1` [Example 584, C-[5-Furan-2-yl-1-(4′-methoxybiphenyl-4-yl)-1H-pyrazol-4-yl]methylamine], the pIC50 is 7.74.

(Values after patent publication US7842695B2, “Substituted pyrazole compounds” (Merck Patent GmbH, priority 2003, dated 2010).)
